Assay results as given in patent US6599900B2, “1-oxa-3,9-diaza-spiro[5,5]undecan-2-ones” (Syntex (U.S.A.) LLC, priority 2001, dated 2003).
Counter-ions that a name gives are not always drawn.

Target: T1, human NK1 receptor (Homo sapiens, UniProt P25103)
T1 construct: expressed in transfected cells; host or cells: CHO cells infected with the Semliki virus expression system; membrane suspension used
Test: [3H]substance P binding at human NK1 receptors in CHO cells
Details: affinity to the NK-1 receptor; [3H]substance P 0.6 nM displacement, CHO cell membranes, 60 min at room temperature
Description: The affinity of test compounds for the NK1 receptor was evaluated at human NK1 receptors in CHO cells infected with the human NK1 receptor (using the Semliki virus expression system) and radiolabelled with [^3H]substance P (final concentration 0.6 nM). Binding assays were performed in HEPES buffer (50 mM, pH 7.4) containing BSA (0.04%) leupeptin (8 μg/ml), MnCl2 (3 mM) and phosphoramidon (2 μM). Binding assays consisted of 250 μl of membrane suspension (1.25×10^5 cells/assay tube), […] of buffer of displacing agent and 125 μl of [^3H]substance P. Displacement curves were determined with at least seven concentrations of the compound. The assay tubes were incubated for 60 min at room temperature after which time the tube contents were rapidly filtered under vacuum through GF/C filters presoaked for 60 min with PEI (0.3%) with 2×2 ml washes of HEPES buffer (50 mM, pH 7.4). The radioactivity retained on the filters was measured by scintillation counting. All assays were performed in triplicate in at least 2 separate experiments.

T1 sequence (P25103 whole entry): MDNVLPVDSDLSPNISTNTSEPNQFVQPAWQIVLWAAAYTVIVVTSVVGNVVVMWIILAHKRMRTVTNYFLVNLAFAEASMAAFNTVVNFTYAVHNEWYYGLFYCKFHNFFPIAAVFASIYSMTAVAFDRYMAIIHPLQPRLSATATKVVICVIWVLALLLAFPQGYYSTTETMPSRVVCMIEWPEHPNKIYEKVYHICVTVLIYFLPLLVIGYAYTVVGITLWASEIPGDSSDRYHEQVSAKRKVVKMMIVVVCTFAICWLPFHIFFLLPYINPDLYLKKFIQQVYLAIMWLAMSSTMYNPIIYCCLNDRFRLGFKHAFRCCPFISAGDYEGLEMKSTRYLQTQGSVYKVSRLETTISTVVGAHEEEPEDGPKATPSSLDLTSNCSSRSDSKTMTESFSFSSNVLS

| Ki [nM] | SMILES |
| --- | --- |
| 11.5 | O=C1OC2(CCN(C(=O)c3cc(C(F)(F)F)cc(C(F)(F)F)c3)CC2)C(c2ccccc2)CN1CCN1CCCC1 (racemic) [Example 30, (5RS)-9-(3,5-bis-trifluoromethyl-benzoyl)-5-phenyl-3-(2-pyrrolidin-1-yl-ethyl)-1-oxa-3,9-diaza-spiro[5.5]undecan-2-one; hydrochloride] |
| 10.5 | CN1CCN(CCCN2CC(c3ccccc3)C3(CCN(C(=O)c4cc(C(F)(F)F)cc(C(F)(F)F)c4)CC3)OC2=O)CC1 (racemic) [Example 29, (5RS)-9-(3,5-bis-trifluoromethyl-benzoyl)-3-[3-(4-methyl-piperazin-1-yl)-propyl]-5-phenyl-1-oxa-3,9-diaza-spiro[5.5]undecan-2-one] |
